In ChEMBL document CHEMBL1149807, “Synthesis and anticancer activity of new class of bisphosphonates/phosphanamidates” (Eur J Med Chem, 2008):

system: NCI-H460; assay: Growth inhibition of human NCI-H460 cells by MTT assay; assay type: functional, cell-based

SMILES	IC50
CC1(C)COP(=O)(C(c2ccccc2)P2(=O)OCC(C)(C)CO2)OC1	> 1000 µM
O=[N+]([O-])c1cccc(C(P2(=O)Oc3ccccc3CN2c2ccc(F)c(Cl)c2)P2(=O)Oc3ccccc3CN2c2ccc(F)c(Cl)c2)c1 (stereo unspecified)	13 µM
C/C=C/C(P1(=O)OCC(C)(C)CO1)P1(=O)OCC(C)(C)CO1	> 1000 µM
O=P1(C(c2ccc(Cl)cc2)P2(=O)Oc3ccccc3CN2c2ccc(F)c(Cl)c2)Oc2ccccc2CN1c1ccc(F)c(Cl)c1 (stereo unspecified)	10.9 µM
CCN(CC)c1ccc(C(P2(=O)OCC(C)(C)CO2)P2(=O)OCC(C)(C)CO2)cc1	> 1000 µM
CC1(C)COP(=O)(C(/C=C/c2ccccc2)P2(=O)OCC(C)(C)CO2)OC1	> 1000 µM
Cc1ccc(C(P2(=O)Oc3ccccc3CN2c2ccc(F)c(Cl)c2)P2(=O)Oc3ccccc3CN2c2ccc(F)c(Cl)c2)cc1 (stereo unspecified)	9 µM
CC1(C)COP(=O)(C(c2ccncc2)P2(=O)OCC(C)(C)CO2)OC1	> 1000 µM
Cc1ccc(C(P2(=O)OCC(C)(C)CO2)P2(=O)OCC(C)(C)CO2)cc1	> 1000 µM
O=P1(C(c2ccccc2)P2(=O)Oc3ccccc3CN2c2ccc(F)c(Cl)c2)Oc2ccccc2CN1c1ccc(F)c(Cl)c1 (stereo unspecified)	3.77 µM
CCN(CC)c1ccc(C(P2(=O)Oc3ccccc3CN2c2ccc(F)c(Cl)c2)P2(=O)Oc3ccccc3CN2c2ccc(F)c(Cl)c2)cc1 (stereo unspecified)	5.69 µM
O=P1(C(/C=C/c2ccccc2)P2(=O)Oc3ccccc3CN2c2ccc(F)c(Cl)c2)Oc2ccccc2CN1c1ccc(F)c(Cl)c1 (stereo unspecified)	11.8 µM
CC1(C)COP(=O)(C(c2cccc([N+](=O)[O-])c2)P2(=O)OCC(C)(C)CO2)OC1	> 1000 µM
C/C=C/C(P1(=O)Oc2ccccc2CN1c1ccc(F)c(Cl)c1)P1(=O)Oc2ccccc2CN1c1ccc(F)c(Cl)c1 (stereo unspecified)	8.22 µM
CC1(C)COP(=O)(C(c2ccc(Cl)cc2)P2(=O)OCC(C)(C)CO2)OC1	> 1000 µM
NP(=O)(O)C(c1ccc(Cl)cc1)P(N)(=O)O (stereo unspecified)	75.2 µM
O=P1(C(c2ccncc2)P2(=O)Oc3ccccc3CN2c2ccc(F)c(Cl)c2)Oc2ccccc2CN1c1ccc(F)c(Cl)c1 (stereo unspecified)	12.3 µM

system: SF-268; assay: Growth inhibition of human SF268 cells by MTT assay; assay type: functional, cell-based

SMILES	IC50
CC1(C)COP(=O)(C(c2ccccc2)P2(=O)OCC(C)(C)CO2)OC1	> 1000 µM
O=[N+]([O-])c1cccc(C(P2(=O)Oc3ccccc3CN2c2ccc(F)c(Cl)c2)P2(=O)Oc3ccccc3CN2c2ccc(F)c(Cl)c2)c1 (stereo unspecified)	10.7 µM
C/C=C/C(P1(=O)OCC(C)(C)CO1)P1(=O)OCC(C)(C)CO1	> 1000 µM
O=P1(C(c2ccc(Cl)cc2)P2(=O)Oc3ccccc3CN2c2ccc(F)c(Cl)c2)Oc2ccccc2CN1c1ccc(F)c(Cl)c1 (stereo unspecified)	11.2 µM
CCN(CC)c1ccc(C(P2(=O)OCC(C)(C)CO2)P2(=O)OCC(C)(C)CO2)cc1	> 1000 µM
CC1(C)COP(=O)(C(/C=C/c2ccccc2)P2(=O)OCC(C)(C)CO2)OC1	> 1000 µM
Cc1ccc(C(P2(=O)Oc3ccccc3CN2c2ccc(F)c(Cl)c2)P2(=O)Oc3ccccc3CN2c2ccc(F)c(Cl)c2)cc1 (stereo unspecified)	7.69 µM
CC1(C)COP(=O)(C(c2ccncc2)P2(=O)OCC(C)(C)CO2)OC1	> 1000 µM
Cc1ccc(C(P2(=O)OCC(C)(C)CO2)P2(=O)OCC(C)(C)CO2)cc1	> 1000 µM
O=P1(C(c2ccccc2)P2(=O)Oc3ccccc3CN2c2ccc(F)c(Cl)c2)Oc2ccccc2CN1c1ccc(F)c(Cl)c1 (stereo unspecified)	2.8 µM
CCN(CC)c1ccc(C(P2(=O)Oc3ccccc3CN2c2ccc(F)c(Cl)c2)P2(=O)Oc3ccccc3CN2c2ccc(F)c(Cl)c2)cc1 (stereo unspecified)	3.85 µM
O=P1(C(/C=C/c2ccccc2)P2(=O)Oc3ccccc3CN2c2ccc(F)c(Cl)c2)Oc2ccccc2CN1c1ccc(F)c(Cl)c1 (stereo unspecified)	11.6 µM
CC1(C)COP(=O)(C(c2cccc([N+](=O)[O-])c2)P2(=O)OCC(C)(C)CO2)OC1	> 1000 µM
C/C=C/C(P1(=O)Oc2ccccc2CN1c1ccc(F)c(Cl)c1)P1(=O)Oc2ccccc2CN1c1ccc(F)c(Cl)c1 (stereo unspecified)	8.5 µM
CC1(C)COP(=O)(C(c2ccc(Cl)cc2)P2(=O)OCC(C)(C)CO2)OC1	> 1000 µM
NP(=O)(O)C(c1ccc(Cl)cc1)P(N)(=O)O (stereo unspecified)	90.4 µM
O=P1(C(c2ccncc2)P2(=O)Oc3ccccc3CN2c2ccc(F)c(Cl)c2)Oc2ccccc2CN1c1ccc(F)c(Cl)c1 (stereo unspecified)	11.7 µM

system: MCF7; assay: Growth inhibition of human MCF7 cells by MTT assay; assay type: functional, cell-based

SMILES	IC50
CC1(C)COP(=O)(C(c2ccccc2)P2(=O)OCC(C)(C)CO2)OC1	> 1000 µM
O=[N+]([O-])c1cccc(C(P2(=O)Oc3ccccc3CN2c2ccc(F)c(Cl)c2)P2(=O)Oc3ccccc3CN2c2ccc(F)c(Cl)c2)c1 (stereo unspecified)	17.6 µM
C/C=C/C(P1(=O)OCC(C)(C)CO1)P1(=O)OCC(C)(C)CO1	> 1000 µM
O=P1(C(c2ccc(Cl)cc2)P2(=O)Oc3ccccc3CN2c2ccc(F)c(Cl)c2)Oc2ccccc2CN1c1ccc(F)c(Cl)c1 (stereo unspecified)	14.3 µM
CCN(CC)c1ccc(C(P2(=O)OCC(C)(C)CO2)P2(=O)OCC(C)(C)CO2)cc1	> 1000 µM
CC1(C)COP(=O)(C(/C=C/c2ccccc2)P2(=O)OCC(C)(C)CO2)OC1	> 1000 µM
Cc1ccc(C(P2(=O)Oc3ccccc3CN2c2ccc(F)c(Cl)c2)P2(=O)Oc3ccccc3CN2c2ccc(F)c(Cl)c2)cc1 (stereo unspecified)	12.7 µM
CC1(C)COP(=O)(C(c2ccncc2)P2(=O)OCC(C)(C)CO2)OC1	> 1000 µM
Cc1ccc(C(P2(=O)OCC(C)(C)CO2)P2(=O)OCC(C)(C)CO2)cc1	> 1000 µM
O=P1(C(c2ccccc2)P2(=O)Oc3ccccc3CN2c2ccc(F)c(Cl)c2)Oc2ccccc2CN1c1ccc(F)c(Cl)c1 (stereo unspecified)	4.05 µM
CCN(CC)c1ccc(C(P2(=O)Oc3ccccc3CN2c2ccc(F)c(Cl)c2)P2(=O)Oc3ccccc3CN2c2ccc(F)c(Cl)c2)cc1 (stereo unspecified)	5.71 µM
O=P1(C(/C=C/c2ccccc2)P2(=O)Oc3ccccc3CN2c2ccc(F)c(Cl)c2)Oc2ccccc2CN1c1ccc(F)c(Cl)c1 (stereo unspecified)	13.1 µM
CC1(C)COP(=O)(C(c2cccc([N+](=O)[O-])c2)P2(=O)OCC(C)(C)CO2)OC1	> 1000 µM
C/C=C/C(P1(=O)Oc2ccccc2CN1c1ccc(F)c(Cl)c1)P1(=O)Oc2ccccc2CN1c1ccc(F)c(Cl)c1 (stereo unspecified)	11.3 µM
CC1(C)COP(=O)(C(c2ccc(Cl)cc2)P2(=O)OCC(C)(C)CO2)OC1	> 1000 µM
NP(=O)(O)C(c1ccc(Cl)cc1)P(N)(=O)O (stereo unspecified)	71.3 µM
O=P1(C(c2ccncc2)P2(=O)Oc3ccccc3CN2c2ccc(F)c(Cl)c2)Oc2ccccc2CN1c1ccc(F)c(Cl)c1 (stereo unspecified)	11.5 µM
